ChEMBL document CHEMBL1144019 (Bioorg Med Chem, 2008)
Converted amounts (≈) assume the structure as drawn.

Assays:
Format in all cases: functional
Pseudomonas aeruginosa [1] = assay: Antibacterial activity against imipenem-resistant Pseudomonas aeruginosa SR-6554 by standard serial agar dilution method
Staphylococcus aureus = assay: Antibacterial activity against Staphylococcus aureus Smith by standard serial agar dilution method
Escherichia coli [2] = assay: Antibacterial activity against Escherichia coli SR-21003 by standard serial agar dilution method
Pseudomonas aeruginosa [3] = assay: Antibacterial activity against Pseudomonas aeruginosa SR24 by standard serial agar dilution method
Haemophilus influenzae [4] = assay: Antibacterial activity against Haemophilus influenzae ATCC 49766 by standard serial agar dilution method
Pseudomonas aeruginosa [5] = assay: Antibacterial activity against AmpC hyperproducing Pseudomonas aeruginosa SR24-12 by standard serial agar dilution method
Haemophilus influenzae [6] = assay: Antibacterial activity against beta-lactamase negative ampicillin-resistant Haemophilus influenzae SR-11435 by standard serial agar dilution method
Enterobacter cloacae [7] = assay: Antibacterial activity against Enterobacter cloacae ATCC 13047 by standard serial agar dilution method
Pseudomonas aeruginosa [8] = assay: Antibacterial activity against Pseudomonas aeruginosa SR-5393 by standard serial agar dilution method
Streptococcus pneumoniae = assay: Antibacterial activity against penicillin-resistant Streptococcus pneumoniae SR-16675 by standard serial agar dilution method
Moraxella catarrhalis = assay: Antibacterial activity against Moraxella catarrhalis ATCC 43617 by standard serial agar dilution method
Escherichia coli [9] = assay: Antibacterial activity against Toho 2 producing Escherichia coli by standard serial agar dilution method
Enterobacter cloacae [10] = assay: Antibacterial activity against AmpC producing Enterobacter cloacae SR-4321 by standard serial agar dilution method

Row | SMILES | MIC (Pseudomonas aeruginosa [1]) [µg/mL] | MIC (Staphylococcus aureus) [µg/mL] | MIC (Escherichia coli [2]) [µg/mL] | MIC (Pseudomonas aeruginosa [3]) [µg/mL] | MIC (Haemophilus influenzae [4]) [µg/mL] | MIC (Pseudomonas aeruginosa [5]) [µg/mL] | MIC (Haemophilus influenzae [6]) [µg/mL] | MIC (Enterobacter cloacae [7]) [µg/mL] | MIC (Pseudomonas aeruginosa [8]) [µg/mL] | MIC (Streptococcus pneumoniae) [µg/mL] | MIC (Moraxella catarrhalis) [µg/mL] | MIC (Escherichia coli [9]) [µg/mL] | MIC (Enterobacter cloacae [10]) [µg/mL]
1 | CNCCn1c(N)nc2c[n+](CC3=C(C(=O)[O-])N4C(=O)[C@@H](NC(=O)/C(=N\O[C@@H](C)C(=O)O)c5nc(N)sc5Cl)[C@H]4SC3)ccc21 | 8 (≈ 11.8 µM) | 16 (≈ 23.6 µM) | 0.25 (≈ 0.368 µM) | 1 (≈ 1.47 µM) | 0.032 (≈ 0.0471 µM) | 4 (≈ 5.89 µM) | 0.125 (≈ 0.184 µM) | 0.5 (≈ 0.736 µM) | 2 (≈ 2.94 µM) | 4 (≈ 5.89 µM) | 0.032 (≈ 0.0471 µM) | 1 (≈ 1.47 µM) | 4 (≈ 5.89 µM)
2 | C[C@H](N)CCn1c(N)nc2c1ccc[n+]2CC1=C(C(=O)[O-])N2C(=O)[C@@H](NC(=O)/C(=N\O[C@@H](C)C(=O)O)c3nc(N)sc3Cl)[C@H]2SC1 | 8 (≈ 11.5 µM) | 2 (≈ 2.89 µM) | 0.25 (≈ 0.361 µM) | 0.5 (≈ 0.721 µM) | 0.016 (≈ 0.0231 µM) | 4 (≈ 5.77 µM) | 0.063 (≈ 0.0909 µM) | 0.5 (≈ 0.721 µM) | 2 (≈ 2.89 µM) | 2 (≈ 2.89 µM) | 0.008 (≈ 0.0115 µM) | 2 (≈ 2.89 µM) | 2 (≈ 2.89 µM)
3 | CNCCn1ncc2c1ccc[n+]2CC1=C(C(=O)[O-])N2C(=O)[C@@H](NC(=O)/C(=N\O[C@@H](C)C(=O)O)c3nc(N)sc3Cl)[C@H]2SC1 | 16 (≈ 24.1 µM) | 4 (≈ 6.02 µM) | 1 (≈ 1.51 µM) | 1 (≈ 1.51 µM) | 0.125 (≈ 0.188 µM) | 8 (≈ 12 µM) | 0.125 (≈ 0.188 µM) | 1 (≈ 1.51 µM) | 4 (≈ 6.02 µM) | 4 (≈ 6.02 µM) | 0.032 (≈ 0.0482 µM) | 4 (≈ 6.02 µM) | 4 (≈ 6.02 µM)
4 | C[C@H](O/N=C(\C(=O)N[C@@H]1C(=O)N2C(C(=O)[O-])=C(C[n+]3cccc4c3nc(N)n4[C@H]3CCNC3)CS[C@H]12)c1nc(N)sc1Cl)C(=O)O | 8 (≈ 11.6 µM) | 4 (≈ 5.79 µM) | 0.25 (≈ 0.362 µM) | 0.5 (≈ 0.723 µM) | 0.032 (≈ 0.0463 µM) | 2 (≈ 2.89 µM) | 0.125 (≈ 0.181 µM) | 0.5 (≈ 0.723 µM) | 2 (≈ 2.89 µM) | 2 (≈ 2.89 µM) | 0.016 (≈ 0.0231 µM) | 2 (≈ 2.89 µM) | 2 (≈ 2.89 µM)
5 | C[C@H](O/N=C(\C(=O)N[C@@H]1C(=O)N2C(C(=O)[O-])=C(C[n+]3cccc4c3nc(N)n4CCNCCO)CS[C@H]12)c1nc(N)sc1Cl)C(=O)O | 16 (≈ 22.6 µM) | 4 (≈ 5.64 µM) | 0.5 (≈ 0.705 µM) | 1 (≈ 1.41 µM) | 0.032 (≈ 0.0451 µM) | 4 (≈ 5.64 µM) | 0.063 (≈ 0.0888 µM) | 0.5 (≈ 0.705 µM) | 4 (≈ 5.64 µM) | 2 (≈ 2.82 µM) | 0.016 (≈ 0.0226 µM) | 4 (≈ 5.64 µM) | 2 (≈ 2.82 µM)
6 | C[C@H](O/N=C(\C(=O)N[C@@H]1C(=O)N2C(C(=O)[O-])=C(C[n+]3ccc(NC4CNC4)cc3)CS[C@H]12)c1nc(N)sc1Cl)C(=O)O | 8 (≈ 12.6 µM) | 2 (≈ 3.14 µM) | 0.5 (≈ 0.785 µM) | 0.5 (≈ 0.785 µM) | 0.063 (≈ 0.0989 µM) | 4 (≈ 6.28 µM) | 0.25 (≈ 0.392 µM) | 0.5 (≈ 0.785 µM) | 2 (≈ 3.14 µM) | 4 (≈ 6.28 µM) | 0.016 (≈ 0.0251 µM) | 4 (≈ 6.28 µM) | 4 (≈ 6.28 µM)
7 | C[C@H](O/N=C(\C(=O)N[C@@H]1C(=O)N2C(C(=O)[O-])=C(C[n+]3cccc4c3nc(N)n4C3CCNCC3)CS[C@H]12)c1nc(N)sc1Cl)C(=O)O | 4 (≈ 5.67 µM) | 2 (≈ 2.84 µM) | 0.25 (≈ 0.355 µM) | 0.5 (≈ 0.709 µM) | 0.016 (≈ 0.0227 µM) | 2 (≈ 2.84 µM) | 0.063 (≈ 0.0893 µM) | 0.25 (≈ 0.355 µM) | 2 (≈ 2.84 µM) | 2 (≈ 2.84 µM) | 0.016 (≈ 0.0227 µM) | 2 (≈ 2.84 µM) | 2 (≈ 2.84 µM)
8 | C[C@H](O/N=C(\C(=O)N[C@@H]1C(=O)N2C(C(=O)[O-])=C(C[n+]3cccc4[nH]ccc43)CS[C@H]12)c1nc(N)sc1Cl)C(=O)O | 8 (≈ 13.2 µM) | 1 (≈ 1.65 µM) | 0.25 (≈ 0.413 µM) | 1 (≈ 1.65 µM) | 0.016 (≈ 0.0264 µM) | 4 (≈ 6.6 µM) | 0.032 (≈ 0.0528 µM) | 0.25 (≈ 0.413 µM) | 2 (≈ 3.3 µM) | 2 (≈ 3.3 µM) | 0.016 (≈ 0.0264 µM) | 1 (≈ 1.65 µM) | 2 (≈ 3.3 µM)
9 | CNCCn1nnc2c1ccc[n+]2CC1=C(C(=O)[O-])N2C(=O)[C@@H](NC(=O)/C(=N\O[C@@H](C)C(=O)O)c3nc(N)sc3Cl)[C@H]2SC1 | 64 (≈ 96.2 µM) | 4 (≈ 6.01 µM) | 0.25 (≈ 0.376 µM) | 2 (≈ 3.01 µM) | 0.125 (≈ 0.188 µM) | 64 (≈ 96.2 µM) | 0.5 (≈ 0.752 µM) | 0.5 (≈ 0.752 µM) | 8 (≈ 12 µM) | 2 (≈ 3.01 µM) | 0.032 (≈ 0.0481 µM) | 2 (≈ 3.01 µM) | 8 (≈ 12 µM)
10 | C[C@H](O/N=C(\C(=O)N[C@@H]1C(=O)N2C(C(=O)[O-])=C(C[n+]3cccc4c3ccn4C)CS[C@H]12)c1nc(N)sc1Cl)C(=O)O | 16 (≈ 25.8 µM) | 1 (≈ 1.61 µM) | 0.125 (≈ 0.202 µM) | 0.5 (≈ 0.806 µM) | 0.016 (≈ 0.0258 µM) | 4 (≈ 6.45 µM) | 0.032 (≈ 0.0516 µM) | 0.25 (≈ 0.403 µM) | 2 (≈ 3.23 µM) | 2 (≈ 3.23 µM) | 0.016 (≈ 0.0258 µM) | 1 (≈ 1.61 µM) | 1 (≈ 1.61 µM)
